Experimental data as given in ChEMBL document CHEMBL1122420, “Parasympatholytic (anticholinergic) esters of the isomeric 2-tropanols. 2. Non-glycolates” (J Med Chem, 1983).

Assays:
Mus musculus = test: Induction of mydriasis in mice following s.c. administration.; assay type: functional; settings: sc
[1] = LD50 in mice following i.v. administration.; assay type: organism-based; settings: mouse, in vivo, iv

## CN1C2CCC1[C@H](OC(=O)N1c3ccccc3Sc3cccnc31)CC2 (single isomer, unassigned; (+))
Mus musculus
  ED50: 5.6 mg/kg
[1]
  LD50: 32 mg/kg

## CN1[C@@H]2CC[C@H]1C[C@@H](OC(=O)C(CO)c1ccccc1)C2 (stereo not given in full) [ATROPINE]
Mus musculus
  ED50: 0.061 mg/kg

## CN1C2CCC1[C@H](OC(=O)CC(O)(c1ccccc1)c1ccccc1)CC2 (single isomer, unassigned; (+))
Mus musculus
  ED50: > 10 mg/kg
[1]
  LD50: 18 mg/kg

## COc1cc(C(=O)O[C@H]2CCC3CCC2N3C)cc(OC)c1OC (single isomer, unassigned; (-))
Mus musculus
  ED50: > 10 mg/kg
[1]
  LD50: 18 mg/kg

## COc1cc(C(=O)O[C@@H]2CCC3CCC2N3C)cc(OC)c1OC (single isomer, unassigned; (+))
Mus musculus
  ED50: 32 mg/kg
[1]
  LD50: 56 mg/kg

## CCCOC(C(=O)O[C@@H]1CCC2CCC1N2C)(c1ccccc1)c1ccccc1 (single isomer, unassigned; (+))
Mus musculus
  ED50: 0.94 mg/kg
[1]
  LD50: 22 mg/kg

## CN1C2CCC1[C@H](OC(=O)C1c3ccccc3CCc3ccccc31)CC2 (single isomer, unassigned; (+))
Mus musculus
  ED50: 5.6 mg/kg
[1]
  LD50: 32 mg/kg

## CN1C2CCC1[C@H](OC(=O)C(F)(c1ccccc1)c1ccccc1)CC2 (single isomer, unassigned; (+))
Mus musculus
  ED50: 0.25 mg/kg
[1]
  LD50: 36 mg/kg

## CN1C2CCC1[C@H](OC(=O)C13CC4CC(CC(C4)C1)C3)CC2 (single isomer, unassigned; (+))
Mus musculus
  ED50: > 10 mg/kg
[1]
  LD50: 32 mg/kg

## CN1C2CCC1[C@H](OC(=O)C(Cl)(c1ccccc1)c1ccccc1)CC2.Cl (single isomer, unassigned; (+))
Mus musculus
  ED50: 0.03 mg/kg
[1]
  LD50: 22 mg/kg

## CN1C2CCC1[C@H](OC(=O)C(OCc1ccccc1)(c1ccccc1)c1ccccc1)CC2.Cl (single isomer, unassigned; (+))
Mus musculus
  ED50: 5.6 mg/kg
[1]
  LD50: 56 mg/kg

## CN1[C@@H]2C[C@@H](OC(=O)[C@H](CO)c3ccccc3)C[C@H]1[C@@H]1O[C@@H]12 [SCOPOLAMINE]
Mus musculus
  ED50: 0.012 mg/kg

## CCCC(C(=O)O[C@@H]1CCC2CCC1N2C)(c1ccccc1)c1ccccc1 (single isomer, unassigned; (+))
Mus musculus
  ED50: > 10 mg/kg
[1]
  LD50: 18 mg/kg

## CN1C2CCC1[C@@H](OC(=O)C1c3ccccc3CCc3ccccc31)CC2 (single isomer, unassigned; (-))
Mus musculus
  ED50: > 10 mg/kg
[1]
  LD50: 18 mg/kg

## CN1C2CCC1[C@H](OC(=O)c1cc(=O)c3ccccc3o1)CC2 (single isomer, unassigned; (+))
Mus musculus
  ED50: > 10 mg/kg
[1]
  LD50: 100 mg/kg

## CN1C2CCC1[C@H](OC(=O)C(CO)c1ccccc1)CC2 (single isomer, unassigned; (+))
Mus musculus
  ED50: 0.1 mg/kg
[1]
  LD50: 50 mg/kg
